The structures appear in SMILES notation.

The subject of this test is eIF2-GTP-Met-tRNAi ternary complex. Description: Ternary complex assay (dual luciferase, firefly/renilla ratio) in stable KLN-tTA/pBISA-DL(ATF-4) cells; HTS and hit confirmation. Further details: Activity 10 uM / Activity 2.5 uM / Activity 5 uM: unit not given here. Conditions: confirmed hits of the screen (Table 5); for Activity 2.5 uM: compound at 2.5 uM; for Activity 10 uM: compound at 10 uM; for Activity 5 uM: compound at 5 uM. The test is classed as cell-based, mouse.

As for `Cc1cc(C)n(C(=C(C(Cl)=C(Cl)Cl)[N+](=O)[O-])n2nc(C)cc2C)n1` [Compound 678036], the “Activity 2.5 uM” value stood at 0.85 and the “Activity 10 uM” value is recorded as 12.77.
Take `CCCCCc1[nH]nc(C(=O)OC)c1N=NN1CCOCC1` [Compound 131237]: the “Activity 2.5 uM” value is reported as 0.87 and the “Activity 10 uM” value is 3.3.
Turning to `Cl.S=C(N/N=C/c1ccccn1)N/N=C/c1ccccn1` [Compound 146007], the “Activity 5 uM” value is 1.8 and the “Activity 10 uM” value amounted to 3.4.
In the case of `COc1ccc(N=c2nc3n4c(c(Br)cc(Br)c4n2)NC(C(Br)(Br)Br)=N3)cc1` [Compound 366233], the “Activity 2.5 uM” value was determined as 17.26 and the “Activity 10 uM” value amounted to 30.55.
Take `CCc1ccc(NC(=O)Nc2cccc(Cl)c2)cc1` [Compound 164212]: the “Activity 2.5 uM” value was found to be 2.04 and the “Activity 10 uM” value is reported as 4.07.
With `Cc1c(Cl)ccc2c(C(O)CNCc3ccccc3)cc(-c3ccc(Cl)cc3)nc12` (stereo not shown) [Compound 14755], the “Activity 2.5 uM” value is recorded as 0.68 and the “Activity 10 uM” value is listed as 6.63.
As to `Cc1ccc(NC(=O)c2ccc(Cl)cc2Cl)cc1` [Compound 405522], the “Activity 2.5 uM” value is listed as 2.47 and the “Activity 10 uM” value is given as 3.69.
Regarding `CCCCCCCCCCCCCCCC[N+]1(CCCCCCCCCC)CC2CCCCC2C1.[I-]` (stereo not shown) [Compound 55240], the “Activity 5 uM” value was found to be 4.2 and the “Activity 10 uM” value is on record as 5.2.
Take `CCCC[CH2][Sn]([CH2]CCCC)[CH2]CCCC.CCCC[CH2][Sn]([CH2]CCCC)[CH2]CCCC` [Compound 202674]: the “Activity 2.5 uM” value is listed as 4.67.
On to `C[n+]1[se]nc2ccccc21.Cc1ccc(S(=O)(=O)[O-])cc1` [Compound 620852], for which the “Activity 2.5 uM” value came out at 4.79 and the “Activity 10 uM” value is reported as 16.94.
`N#C/C(=C/C=C/c1ccccc1)c1ccccc1` [Compound 338119]: the “Activity 5 uM” value amounted to 3.435 and the “Activity 10 uM” value turned out to be 5.6885.
For `CCCCCC[N+](CCCCCC)(CCCCCC)CCCCCC.O=C([O-])c1ccccc1` [Compound 152111] the same measures were 10.85 and 10.391.
For `Oc1ccccc1/C=N/NC(=S)Nc1ccc2cn[nH]c2c1` [Compound 76429] the same measures were 4.409 and 5.2405.
`O=C1C(Cl)=C(Nc2nccs2)C(=O)c2ccccc21` [Compound 337757]: the “Activity 5 uM” value worked out at 6.205 and the “Activity 10 uM” value amounted to 5.978.
With `CCCN(/C=C/C=C/C=[N+](CCC)CCC)CCC.[O-][Cl+3]([O-])([O-])[O-]` [Compound 161504], the “Activity 5 uM” value is given as 2.6 and the “Activity 10 uM” value turned out to be 5.3.
For the compound `CCOC(=C\C=C\C1=[N+](C)c2ccccc2C1(C)C)/C=C/C=C1/N(C)c2ccccc2C1(C)C.F[B-](F)(F)F` [Compound 295477], the “Activity 2.5 uM” value worked out at 6.24 and the “Activity 10 uM” value was found to be 9.07.
For `COc1ccc(/C=N/Nc2nc3ccccc3c(=O)n2-c2ccccc2)cc1` [Compound 666356] the same measures were 2.43 and 30.26.
Consider `CC(=O)[O-].[O-]c1c(Cl)cc(Cl)cc1/C=N/Nc1ccccn1.[Zn+2]` [Compound 625863], for which the “Activity 2.5 uM” value turned out to be 3.75 and the “Activity 10 uM” value worked out at 3.72.
Taken in the same sequence, the figures for `Nc1ccccc1Nc1c([N+](=O)[O-])cc(C(F)(F)F)cc1[N+](=O)[O-]` [Compound 379578] were 0.61 and 27.15.
`CCS(=O)(=O)/C=C/c1ccc2ccccc2n1` [Compound 202491]: the “Activity 2.5 uM” value is reported as 0.5 and the “Activity 10 uM” value was found to be 3.05.
Taken in the same sequence, the figures for `C/C(=N/NC(=S)Nc1ccccc1C)c1ccccn1` [Compound 668332] were 27.24 and 63.38.
As for `C/C(=N\NC(=S)N1CCN(C2CCCCCC2)CC1)c1ccccn1` [Compound 376265], the “Activity 2.5 uM” value is listed as 2.72 and the “Activity 10 uM” value was 7.26.
As for `N#Cc1ncc(Cl)cc1[N+](=O)[O-]` [Compound 141226], the “Activity 2.5 uM” value worked out at 1.05 and the “Activity 10 uM” value is 3.5.
Consider `CCN(C)c1cc(=O)c2c(ccc3ccccc32)o1` [Compound 292796], for which the “Activity 5 uM” value stood at 4.759 and the “Activity 10 uM” value is 5.6.
Take `CC(N)c1ccc(OCCOc2ccc(C(C)(C)CC(C)(C)C)cc2)cc1` (stereo not shown) [Compound 151117]: the “Activity 2.5 uM” value was 0.85 and the “Activity 10 uM” value came out at 12.07.
For `CCC[CH2][Sn]([Cl])([CH2]CCC)[S]/C(C#N)=N/N=C/c1ccc(N(C)C)cc1` [Compound 620296] the same measures were 5.24 and 3.13.
On to `O=C(Nc1ccc(Cl)c(Cl)c1)c1ccc(Cl)cc1` [Compound 204163], for which the “Activity 2.5 uM” value came to 2.44 and the “Activity 10 uM” value is reported as 4.83.
As for `O=C(/C=C/c1ccc(Cl)cc1)CC(Cl)c1ccc(Cl)cc1` (stereo not shown) [Compound 54905], the “Activity 5 uM” value is listed as 11.56 and the “Activity 10 uM” value is listed as 16.011.
Consider `Oc1cccc(C2=NNC(c3cccc(O)c3)=NN2)c1` [Compound 171129], for which the “Activity 2.5 uM” value is 5.1 and the “Activity 10 uM” value amounted to 7.98.
In the case of `COc1ccccc1C(=O)N/N=C\c1ccc(Cl)cc1Cl` [Compound 204386], the “Activity 5 uM” value came out at 5.252 and the “Activity 10 uM” value came to 6.0225.
Turning to `C(=P(c1ccccc1)(c1ccccc1)c1ccccc1)[P+](c1ccccc1)(c1ccccc1)c1ccccc1.[Br-].[Br-].[Cu+]` [Compound 203423], the “Activity 2.5 uM” value is given as 7.7 and the “Activity 10 uM” value was found to be 3.09.
With `C1=Cc2ccccc2/C1=C/c1ccc2c(c1)OCO2` [Compound 86430], the “Activity 5 uM” value was found to be 4.871 and the “Activity 10 uM” value is reported as 6.063.
For the compound `CC(C)Nc1nc(NC(C)C)c2cnn(-c3ccccc3)c2n1` [Compound 19143], the “Activity 2.5 uM” value is recorded as 1.72 and the “Activity 10 uM” value came to 3.2.
Taken in the same sequence, the figures for `CCCCCCCCCCCCCCCC[N+](C)(C)Cc1ccccc1.[Br-]` [Compound 263517] were 1.39 and 8.78.
Taken in the same sequence, the figures for `CCN1CCNc2c3cc(OC)ccc3nc3c([N+](=O)[O-])ccc1c23` [Compound 658354] were 0.2379 and 6.609.
For `C[N+]1=C(/C=C/Nc2cc3c4ccccc4ccc3c3ccccc23)C(C)(C)c2ccccc21.[Cl-]` [Compound 313162] the same measures were 1.07 and 4.03.
`N#Cc1c(F)c(F)c(Oc2c(F)c(F)c(F)c(F)c2F)c(F)c1Oc1c(F)c(F)c(F)c(F)c1F` [Compound 168745]: the “Activity 2.5 uM” value was found to be 0.39 and the “Activity 10 uM” value is 36.37.
For `C/C(=N\NC(=S)Nc1nccs1)c1ccccn1` [Compound 354087] the same measures were 2.65 and 10.14.
Turning to `CN1N=C([P+](c2ccccc2)(c2ccccc2)c2ccccc2)CC1(c1ccccc1)c1ccccc1.[I-]` [Compound 135744], the “Activity 5 uM” value came to 7 and the “Activity 10 uM” value came out at 21.9.
Regarding `O=C(Nc1ccc2ccccc2c1)c1ccc(Cl)cc1Cl` [Compound 158959], the “Activity 2.5 uM” value worked out at 3.2 and the “Activity 10 uM” value came out at 4.01.
As for `O=[N+]([O-])c1ccc(N=Nc2c(Cl)cc(O)cc2Cl)cc1` [Compound 83318], the “Activity 5 uM” value is 12.03 and the “Activity 10 uM” value was found to be 14.6225.
On to `CC(=O)Nc1cc(OC(C)=O)c2ccccc2c1OC(C)=O` [Compound 45171], for which the “Activity 2.5 uM” value turned out to be 3.08.
For `OCCc1ccc(-n2cnc3c(Nc4ccc(Cl)cc4)ncnc32)cc1` [Compound 87695], the “Activity 2.5 uM” value is reported as 3.28 and the “Activity 10 uM” value turned out to be 4.42.
For `CN(CCCl)c1ccc(C2N(Cc3ccccc3)c3ccccc3N2Cc2ccccc2)cc1` [Compound 96375], the “Activity 5 uM” value was found to be 2 and the “Activity 10 uM” value turned out to be 5.9.
Take `O=C1C=CC(=O)c2c1ccc1c3ccccc3n(-c3cccc([N+](=O)[O-])c3)c21` [Compound 661223]: the “Activity 2.5 uM” value worked out at 1.05 and the “Activity 10 uM” value turned out to be 11.8.
For `CN(C)c1ccc(/C=C2\CCCCCC2=O)cc1` [Compound 689962], the “Activity 5 uM” value is recorded as 4.784 and the “Activity 10 uM” value is recorded as 7.987.
`c1csc(-c2ccc3ccccc3n2)c1` [Compound 71690]: the “Activity 5 uM” value came out at 2.889 and the “Activity 10 uM” value is 3.4315.
As for `CNCC(O)c1ccc(O)c(O)c1.[Pt].c1ccc([PH+](c2ccccc2)c2ccccc2)cc1.c1ccc([PH+](c2ccccc2)c2ccccc2)cc1` [Compound 377377], the “Activity 2.5 uM” value was 0.77 and the “Activity 10 uM” value stood at 34.93.
Taken in the same sequence, the figures for `Cc1ccc(N=Nc2ccc(N(C)C)cc2)cc1` [Compound 204514] were 3.6 and 4.66.
`Cc1cccc(/C=N/Nc2cc(C)c3ccccc3n2)n1` [Compound 332426]: the “Activity 2.5 uM” value was 2.37 and the “Activity 10 uM” value is 3.15.
For `CO[C@H]1/C=C/O[C@@]2(C)Oc3c(C)c(O)c4c(O)c(c(/C=N/N5CCN(Cc6cccc(C(F)(F)F)c6)CC5)c(O)c4c3C2=O)NC(=O)/C(C)=C\C=C\[C@H](C)[C@H](O)[C@@H](C)[C@@H](O)[C@@H](C)[C@H](OC(C)=O)[C@@H]1C` [Compound 173710] the same measures were 0.83 and 16.35.
Take `c1ccc2c(c1)O[As](O[As]1Oc3ccccc3O1)O2` [Compound 157382]: the “Activity 2.5 uM” value worked out at 0.68 and the “Activity 10 uM” value is reported as 9.04.
Taken in the same sequence, the figures for `O=C(CC(c1cccnc1)C(C(=O)c1ccc(Cl)cc1)C(CC(=O)c1ccc(Cl)cc1)c1cccnc1)c1ccc(Cl)cc1` (stereo not shown) [Compound 339119] were 1.01 and 4.42.
Taken in the same sequence, the figures for `c1ccc(-c2ccc3c4ccccc4ccn23)cc1` [Compound 131464] were 3.63 and 3.99.

The values are drawn from patent US9932300B2, “N,N′-diarylurea compounds and N,N′-diarylthiourea compounds as inhibitors of translation initiation” (President and Fellows of Harvard College, priority 2009, dated 2018).
